This note sets out measurements from patent US10835466B2, “Wrinkle ameliorating agent” (POLA CHEMICAL INDUSTRIES, INC., priority 2016, dated 2020).

For this test, the system named is wrinkles of the outer corners of the eyes. Briefly: Test of wrinkle improvement effect (skin replica shadow image analysis after 8 weeks of application). The test is classed as in vivo, women. Particulars: for Wrinkle improvement Improvement rate (%): applied to outer corners of the eyes twice a day for 8 weeks; for Wrinkle improvement Evaluation: twice a day for 8 weeks, class of the improvement rate. How it is done: The cosmetics (Examples 1-7, Comparative Example, and Reference Examples) according to Table 1 were prepared respectively in a conventional manner. With regard to each of the prepared cosmetics, the wrinkle improvement effect was evaluated by the following method. In other words, 45 women (40 to 60 years old) who were concerned about wrinkles of the outer corners of the eyes were divided into 9 groups of 5 persons. To each group, any one of the cosmetics of Examples 1 to 7, Comparative Example, and Reference Examples was handed over, which was applied by them to the outer corners of the eyes twice a day in the morning and evening continuously for 8 weeks. Before and after the test, an impression of the skin surface profile was taken in a conventional manner to produce the respective replicas. As the base material for the replica, that for a white replica not transmitting light was used. […] The distribution of brightness in the shadow image was determined, and the brightness equal to or higher than the median value of the brightness was transformed to the maximum brightness, and the brightness below the median value was transformed to the brightness 0 so that binarization is performed according to the borderline of the median value of the brightness. Then the area rate of the shadow portion (portion with the brightness 0) was measured and the wrinkle improvement rate was calculated based on the following expression. Wrinkle improvement rate (%)=(Area rate of shadow portion before test−Area rate of shadow portion after test)/(Area rate of shadow portion before test)×100

[1] abbreviates: cosmetic of Table 1 with 0.01% by mass compound (Examples 3 and 5), average of group of 5 women.
The mark [2] stands for this setting: cosmetic of Table 1 with 0.01% by mass compound (Examples 3 and 5).
Where [3] appears, read: cosmetic of Table 1 with 1% by mass compound, average of group of 5 women (40 to 60 years old).
The mark [4] stands for this setting: cosmetic of Table 1 with 1% by mass compound.

Each structure is given as a SMILES string. Structures can show the parent of a compound that is named as a salt.

With `NCC1CCC(C(=O)c2ccc(CCC(=O)O)cc2)CC1` (centres unmarked) [Compound 1, 3-[p-(4-aminomethylcyclohexylcarbonyl)phenyl]propionic acid], the “Wrinkle improvement Improvement rate (%)” value reads like this: under setting [1], 6.3%; under setting [3], 12%. For the same compound, the “Wrinkle improvement Evaluation” value is, setting by setting: under setting [2], “A (5% or more and less than 10%)”; under setting [4], “AA (The improvement rate is 10% or more)”.

With `CCCCCCOC(=O)CCc1ccc(C(=O)C2CCC(CN)CC2)cc1` (centres unmarked) [Compound 2, hexyl 3-[p-(4-aminomethylcyclohexylcarbonyl)phenyl]propionate], under setting [3], the “Wrinkle improvement Improvement rate (%)” value is 8.2%. Also, under setting [4], the “Wrinkle improvement Evaluation” value was “A (5% or more and less than 10%)”.

Turning to `NCC1CCC(C(=O)c2ccc(CCCO)cc2)CC1` (centres unmarked) [Compound 3, 3-[p-(4-aminomethylcyclohexylcarbonyl)phenyl]propanol], the “Wrinkle improvement Improvement rate (%)” value by setting is: under setting [1], 5.6%; under setting [3], 9.3%. Moreover, the “Wrinkle improvement Evaluation” value is “A (5% or more and less than 10%)” under setting [2]; “A (5% or more and less than 10%)” under setting [4].

As to `CCCCCC(=O)OCCCc1ccc(C(=O)C2CCC(CN)CC2)cc1` (centres unmarked) [Compound 4, 3-[p-(4-aminomethylcyclohexylcarbonyl)phenyl]propyl hexanoate], the “Wrinkle improvement Improvement rate (%)” value under setting [3] turned out to be 8.3%. Further, under setting [4], the “Wrinkle improvement Evaluation” value is “A (5% or more and less than 10%)”.

As to `CCCCCC(=O)OCC(C)Cc1ccc(C(=O)C2CCC(CN)CC2)cc1` (centres unmarked) [Compound 5, 2-methyl-3-[p-(4-aminomethylcyclohexylcarbonyl)phenyl]propyl hexanoate], the “Wrinkle improvement Improvement rate (%)” value under setting [3] is reported as 6.5%. The “Wrinkle improvement Evaluation” value under setting [4] was “A (5% or more and less than 10%)”.

With `NCC1CCC(C(=O)c2ccc(CCC(=O)O)cc2)CC1` (centres unmarked) [Hydrochloride salt of Compound 1, 3-[p-(4-aminomethylcyclohexylcarbonyl)phenyl]propionic acid], the “Wrinkle improvement Improvement rate (%)” value under setting [3] was found to be 12.2%. Further, the “Wrinkle improvement Evaluation” value under setting [4] was “AA (The improvement rate is 10% or more)”.

`CNC(=O)[C@H]1CC[C@H](CN)CC1.Cl` [Tranexamic acid methylamide hydrochloride, reference compound]: the “Wrinkle improvement Improvement rate (%)” value under setting [3] turned out to be 3.6%. Moreover, under setting [4], the “Wrinkle improvement Evaluation” value is “B (less than 5%)”.

With `NC[C@H]1CC[C@H](C(=O)O)CC1` [Tranexamic acid, reference compound], the “Wrinkle improvement Improvement rate (%)” value under setting [3] was found to be 3.2%. Besides, the “Wrinkle improvement Evaluation” value under setting [4] was “B (less than 5%)”.
